“Also recorded” adds a separate entry of the source. Where two headings read alike, the source gives them in different places.
Columns and labels:
47× CAG RNA = assay: In vitro RNA phase separation/gelation assay (fluorescence micrographs, index of dispersion); type: biochemical; conditions: for 47× CAG RNA clustering in vitro: 100 mM ammonium acetate (NH4OAc); for 47× CAG RNA clustering / gel formation in vitro: doxorubicin added to pre-formed clusters (37° C., 1 hour) or pre-mixed before annealing
Method: For phase separation/gelation assays, RNAs were diluted to concentrations of 0.5 ng/μL to 0.5 μg/μL in 10 mM Tris pH 7.0, 10 mM MgCl2, 25 mM NaCl buffer, unless indicated otherwise. Nuclease-free buffer stocks were purchased from Ambion. RNA was denatured at 95° C. for 3 minutes and cooled down at 1-4° C. per minute to 37° C. final temperature in a thermocycler and imaged immediately. Samples were visualized using a custom spinning disk confocal microscope (Nikon Ti-Eclipse equipped with a Yokogawa CSU-X spinning disk module) using a×100, 1.49 numerical aperture oil immersion objective and an air-cooled EM-CCD (electron multiplying charge-coupled device). The extent of phase separation/gelation was quantified by the index of dispersion (σ^2/μ) of fluorescence intensity per pixel (pixel size 83 nm×83 nm). Briefly, variance in the fluorescence intensity per image was determined, and normalized to the mean fluorescence intensity in the solution phase of the RNA. For dilute solution (<10% of imaging area occupied with clusters), this parameter reports the extent of inhomogeneity in the sample. At least 20 independent imaging areas (about 1,800 μm^2 each) were analyzed for each condition to achieve a representative measure across the sample. Each datum point in the bar graphs represents one imaging area. Data shown are representative of three or more independent replicates, across two or more independent RNA preparations.
For antisense DNA-mediated repression of RNA phase separation, 47×CAG RNA (200 ng/μL or 2.4 μM) was incubated with the ASO at 20 μM final concentration, followed by heat denaturation and annealing as described above. Doxorubicin was purchased from Cell Signaling Technology (catalogue number 5927). For in vitro experiments, doxorubicin was added to pre-formed RNA clusters, and samples were incubated at 37° C. for 1 hour. Alternatively, doxorubicin and RNA were pre-mixed at indicated concentrations before annealing. Similar results were obtained in both cases.

[1] = test system: 47× CAG RNA foci in U-2OS cells; assay: Live-cell reporter assay of RNA foci (MS2CP-YFP) in U-2OS cells; type: cell-based
Method: (§1) A monoclonal U-20S cell line stably expressing Tet-On 3G transactivator protein (Clontech) and a tandem-dimeric MS2 hairpin binding protein tagged with enhanced YFP (MS2CP-YFP) was generated via sequential lentiviral infection and selection. This stable cell line was transduced with repeat-containing plasmids under doxycyclinetetracycline-inducible promoter. […] Cell lines were tested for mycoplasma contamination using a standard PCR kit (LookOut Mycoplasma PCR Detection Kit, Sigma) and verified routinely by live-cell DNA staining.
(§2) RNA expression was induced by adding 1,000 ng/mL doxycycline for 12-48 hours, or as indicated. Before imaging, the culture medium was replaced with DMEM with 25 mM HEPES pH 7.5 or FluoroBrite DMEM (Invitrogen) with serum and antibiotics as listed above. For long-term imaging (>2 hours), cells were placed in a live-cell imaging chamber supplemented with 5% CO2. Cells were imaged using a spinning disk confocal microscope (Nikon Ti-Eclipse equipped with a Yokogawa CSU-X spinning disk module) using a×100, 1.49 numerical aperture oil immersion objective and an air-cooled EM-CCD. For each experimental condition, at least 30 randomly chosen cells were imaged and analyzed. Each datum point in the bar graphs represents one cell. Data shown are representative of three or more independent replicates.
(§3) ATP depletion was achieved by rinsing cells twice in DMEM without glucose (Gibco), followed by incubation for 10 minutes in the ATP depletion medium (DMEM without glucose with 1% (v/v) dialyzed FBS (Gibco), 10 mM sodium azide and 6 mM 2-deoxy-D-glucose). Doxorubicin (stock, 10 mM in dimethylsulfoxide (DMSO)) was diluted to the desired concentration in cell culture medium and added to cells pre-induced with doxycycline for 24 hours. Cells were incubated with doxorubicin or an equivalent dilution of DMSO only as control, for 2 hours, and imaged as described above. Ammonium acetate (stock, 5 N) was diluted to 200 mM in cell culture medium. This intermediate dilution (2×) was added to cells pre-induced with doxycycline for 24 hours to achieve a final concentration of 100 mM of ammonium acetate. Cells were incubated in this medium for 10 minutes at 37° C. Normal cell culture medium was replaced after treatment, and cells were imaged immediately or 1 hour after medium replacement. For treatment with ASO, cells pre-induced with doxycycline for 48 hours were transfected with 100 nM final concentration of ASO using either Lipofectamine RNAiMAX (Invitrogen) or TranslT-Oligo Transfection Reagent (Mirius Bio) according to the manufacturers' recommended protocols. Similar results were obtained with both transfection reagents. Cells were imaged 12 hours after transfection.
(§4) A fluorescence-intensity and size-based threshold was used to identify RNA foci. Briefly, U-2OS cells expressing the RNA of interest together with MS2CP-YFP were imaged using a spinning disk confocal microscope, and 0.3 μm Z-stacks were acquired. […] The nuclei were manually segmented, and the mean YFP fluorescence intensity in the nucleus was manually determined. RNA foci were identified using the FIJI 3D Objects Counter plugin, with an intensity threshold as 1.6x the mean fluorescence intensity in the nucleus of the cell, and a size cut-off of more than 50 adjoining pixels (pixel size, 83 nm×83 nm). […] This method was used to determine the number, volume, surface area, and the fluorescence intensity of the foci.

nuclear speckles (SC-35) = type: cell-based
Method: as §3, with “Similar results were obtained with both transfection reagents.” left out
Hybridization and wash buffers were purchased from Biosearch Technologies and used according to the manufacturer's protocol. For immunofluorescence detection of proteins, methanol-fixed cells were stained using antibodies against muscleblind-like-1 (MBNL1, Abcam, ab45899), hnRNP H (Abcam, ab10374), SC-35 (Abcam, ab11826), coilin (ab87913), fibrillarin (Abcam, ab5821), PML (Abcam, ab179466), and a corresponding Alexa Fluor 647-labelled secondary antibody (Invitrogen A-21236 or Invitrogen A-21244). Samples were co-stained with an anti-green fluorescent protein (GFP) booster antibody (GBA488, Bulldog Bio) to visualize RNA foci. After labelling, samples were mounted in Prolong Gold antifade medium (Thermo Scientific) and imaged using confocal microscopy as described above.

[2] = test system: 47× CAG RNA foci in U-2OS cells; assay: RNA FISH with probe against MS2 hairpin loops in U-2OS cells; type: cell-based
Method: For RNA FISH in U-2OS cells, cells expressing the desired RNA (induced for 24 hours) were fixed with 2% paraformaldehyde for 10 minutes at room temperature and permeabilized by overnight incubation in 70% ethanol at 4° C. Alternatively, cells were fixed and permeabilized by incubation for 10 minutes in methanol with 10% (v/v) acetic acid. Similar results were obtained with both fixation protocols. Fixed and permeabilized cells were either used immediately, or stored in the permeabilization medium at −20° C. until needed. RNA was detected using Cy3-labelled DNA oligonucleotides designed against the MS2-hairpin sequence.

[3] = test system: 29× GGGGCC RNA foci in U-2OS cells; assay: Live-cell reporter assay of GGGGCC RNA foci in U-2OS cells; type: cell-based
Method: as §1
as §2, with “replicates. […]” for “replicates.”
as §4, with “foci.” for “foci. Briefly, U-2OS cells expressing the RNA of interest together with MS2CP-YFP were imaged using a spinning disk confocal microscope, and 0.3 μm Z-stacks were acquired.”

[4] = 2.5 μM doxorubicin for 2 hours, listed as Doxorubicin

[Cl-].[Na+] [NaCl]
clustering of 47× CAG RNA in presence of NaCl (47× CAG RNA; NaCl): inhibited

CC(=O)O.N [ammonium acetate]
47× CAG RNA clustering in vitro (47× CAG RNA): not observed
47× CAG RNA clustering in vitro (47× CAG RNA; listed as NH4OAc): prevents 47× CAG RNA clustering
47× CAG RNA foci in cells [1]: disappearance of 47× CAG RNA foci within minutes; also recorded: disrupted
nuclear speckles (nuclear speckles (SC-35)): disrupted
47× CAG RNA foci by RNA FISH ([2]; 100 mM NH4OAc): disrupted
29× GGGGCC RNA foci in cells ([3]; NH4OAc, same cell before and 300 s after treatment): disrupted
29× GGGGCC RNA foci in cells ([3]; NH4OAc, same cell before and 300 s after treatment, listed as NH4OAc): disrupting 29× GGGGCC RNA foci

COc1cccc2c1C(=O)c1c(O)c3c(c(O)c1C2=O)C[C@@](O)(C(=O)CO)C[C@@H]3O[C@H]1C[C@H](N)[C@H](O)[C@H](C)O1 [doxorubicin]
47× CAG RNA clustering / gel formation in vitro (47× CAG RNA): prevents 47× CAG RNA clustering
47× CAG RNA clustering / gel formation in vitro (47× CAG RNA; listed as Doxorubicin): blocked the formation of CAG RNA gels in vitro; also recorded: disrupted 47× CAG RNA clustering in vitro in a dose-dependent manner
concentration of doxorubicin needed to disrupt RNA clusters in the in vitro experiments (47× CAG RNA; in vitro): about 1 mM
47× CAG RNA foci in cells ([1]; 2.5 μM doxorubicin for 2 hours): specifically abrogated the 47× CAG RNA foci
47× CAG RNA foci in cells [1, 4]: potently dissolved the 47× CAG nuclear foci in cells
concentration of doxorubicin required to disrupt RNA foci in cells ([1]; U-2OS cells, 47× CAG): 2.5 µM
nuclear speckles (nuclear speckles (SC-35); 2.5 μM doxorubicin for 2 hours): not disrupted
nuclear speckles (nuclear speckles (SC-35); [4]): without disrupting nuclear speckles
47× CAG RNA foci by RNA FISH ([2]; 2.5 μM doxorubicin): disrupted
29× GGGGCC RNA foci in cells ([3]; doxorubicin): disrupting 29× GGGGCC RNA foci; also recorded: disrupted

CO[C@H]([C@H](O)CC(=O)[C@@H](C)[C@@H](O)CC[C@@H](C)[C@@H]1O[C@]2(CC[C@@H](C)[C@H](CC[C@H](C)C(C)=O)O2)CC[C@@H]1C)[C@H](OC(=O)C[C@@H](O)C1=C(C)C(=O)OC1=O)C(C)C [tautomycin]
47× CAG RNA foci in cells ([1]; 2 μM tautomycin for 4 hours): disrupts the 47× CAG RNA foci; also recorded: disrupted
nuclear speckles (nuclear speckles (SC-35); 2 μM tautomycin for 4 hours): disruption of nuclear speckles; also recorded: disrupted
